From US10221173B2, “Chemical compounds” (AstraZeneca AB, priority 2017, dated 2019) come the findings set out here.

A short description of data set [1]: Thermodynamic solubility (shake-flask). It counts as physicochemical. The conditions noted are these: phosphate buffer pH 7.4, 24 hours.
Method: The thermodynamic solubility of a research compound is measured under standard conditions. It is a shake-flask approach that uses 10 mM DMSO solutions which are supplied from the Compound Managements liquid store and is a high throughput method. The dried compounds are equilibrated in an aqueous phosphate buffer (pH 7.4) for 24 hours at 25° C., the portion with the dissolved compound is then separated from the remains. The solutions are analyzed and quantified using UPLC/MS/MS, QC-samples are incorporated in each assay-run to ensure the quality of the assay.
The next data set concerns the target hERG potassium channel (Homo sapiens (Human), UniProt Q12809).
Data set [2] addresses recombinant human Estrogen Receptor alpha ligand binding domain (ER alpha-LBD (GST)) (Homo sapiens (Human), UniProt P03372). In words: ERα binding assay (LanthaScreen TR-FRET competition). On the technique in general: TR-FRET usually uses a lanthanide donor and a delayed reading to cut background.
Data set [3] in a line: Log D (shake flask, 1-octanol/aqueous buffer). Format: physicochemical. The conditions noted are these: for logD: 1-octanol/aqueous buffer, pH 7.4, pH 7.4.
Data set [4] can be described thus: Human plasma protein binding (equilibrium dialysis). Format: in vitro ADME. On the technique in general: In equilibrium dialysis free small molecules cross a membrane that holds back macromolecules.
Method: The automated equilibrium dialysis assay in human plasma uses the RED (Rapid Equilibrium Dialysis) Device and sample handling. The assay generally runs over two to three days including delivery of results. After dialysis for 18 hours, plasma and buffer samples are prepared for analysis by liquid chromatography and mass spectrometry. Samples are generally tested in singlicates and quantified by LC/MSMS by using a 7-point calibration curve in plasma. The compounds are pooled together in plasma pools up to 10 compounds. Three reference compounds are used in each run, Propranolol, Metoprolol and Warfarin. Warfarin is used as a control in each pool and Propranolol and Metoprolol are placed randomly in each run. An in-house Excel macro is used for preparation of files for the robot and the mass spectrometer and is also used for the calculations of fraction unbound (fu %) in plasma.
Data set [5] concerns the target Estrogen Receptor (ERα) in MCF-7 cells (Homo sapiens (Human), UniProt P03372). In words: MCF-7 ER down-regulation assay (immuno-fluorescence). It counts as cell-based. The conditions noted are these: for % downregulation (in brackets): maximum downregulation.
[6] abbreviates: aqueous phosphate buffer, 25 °C, pH 7.4, aqueous buffer, thermodynamic from solid.

Values after ≈ are worked out from the molar mass of the structure shown.

Estrogen Receptor (ERα) in MCF-7 cells, sequence (P03372 whole entry): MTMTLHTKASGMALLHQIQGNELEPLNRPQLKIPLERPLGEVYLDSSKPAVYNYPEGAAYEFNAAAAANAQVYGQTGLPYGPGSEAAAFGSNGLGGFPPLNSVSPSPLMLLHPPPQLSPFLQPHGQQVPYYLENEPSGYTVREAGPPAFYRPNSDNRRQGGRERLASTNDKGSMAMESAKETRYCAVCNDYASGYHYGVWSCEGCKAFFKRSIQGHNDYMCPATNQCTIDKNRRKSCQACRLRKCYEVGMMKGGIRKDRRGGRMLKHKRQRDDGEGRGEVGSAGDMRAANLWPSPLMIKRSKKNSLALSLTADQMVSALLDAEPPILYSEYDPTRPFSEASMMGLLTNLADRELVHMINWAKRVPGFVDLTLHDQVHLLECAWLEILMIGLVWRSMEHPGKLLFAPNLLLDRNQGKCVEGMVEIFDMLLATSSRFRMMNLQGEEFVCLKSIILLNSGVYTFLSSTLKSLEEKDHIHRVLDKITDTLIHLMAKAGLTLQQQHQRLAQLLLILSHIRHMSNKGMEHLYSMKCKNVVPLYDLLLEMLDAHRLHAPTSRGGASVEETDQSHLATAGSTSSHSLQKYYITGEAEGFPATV
recombinant human Estrogen Receptor alpha ligand binding domain (ER alpha-LBD (GST)), sequence (P03372 307-554): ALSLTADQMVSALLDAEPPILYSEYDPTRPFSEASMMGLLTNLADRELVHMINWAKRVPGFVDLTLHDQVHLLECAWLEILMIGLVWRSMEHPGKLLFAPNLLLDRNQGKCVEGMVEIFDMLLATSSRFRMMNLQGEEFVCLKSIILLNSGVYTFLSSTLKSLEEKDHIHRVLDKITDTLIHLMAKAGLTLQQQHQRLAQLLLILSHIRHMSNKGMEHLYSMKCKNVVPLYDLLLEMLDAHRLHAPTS
hERG potassium channel, sequence (Q12809 whole entry, the tested form may be a part): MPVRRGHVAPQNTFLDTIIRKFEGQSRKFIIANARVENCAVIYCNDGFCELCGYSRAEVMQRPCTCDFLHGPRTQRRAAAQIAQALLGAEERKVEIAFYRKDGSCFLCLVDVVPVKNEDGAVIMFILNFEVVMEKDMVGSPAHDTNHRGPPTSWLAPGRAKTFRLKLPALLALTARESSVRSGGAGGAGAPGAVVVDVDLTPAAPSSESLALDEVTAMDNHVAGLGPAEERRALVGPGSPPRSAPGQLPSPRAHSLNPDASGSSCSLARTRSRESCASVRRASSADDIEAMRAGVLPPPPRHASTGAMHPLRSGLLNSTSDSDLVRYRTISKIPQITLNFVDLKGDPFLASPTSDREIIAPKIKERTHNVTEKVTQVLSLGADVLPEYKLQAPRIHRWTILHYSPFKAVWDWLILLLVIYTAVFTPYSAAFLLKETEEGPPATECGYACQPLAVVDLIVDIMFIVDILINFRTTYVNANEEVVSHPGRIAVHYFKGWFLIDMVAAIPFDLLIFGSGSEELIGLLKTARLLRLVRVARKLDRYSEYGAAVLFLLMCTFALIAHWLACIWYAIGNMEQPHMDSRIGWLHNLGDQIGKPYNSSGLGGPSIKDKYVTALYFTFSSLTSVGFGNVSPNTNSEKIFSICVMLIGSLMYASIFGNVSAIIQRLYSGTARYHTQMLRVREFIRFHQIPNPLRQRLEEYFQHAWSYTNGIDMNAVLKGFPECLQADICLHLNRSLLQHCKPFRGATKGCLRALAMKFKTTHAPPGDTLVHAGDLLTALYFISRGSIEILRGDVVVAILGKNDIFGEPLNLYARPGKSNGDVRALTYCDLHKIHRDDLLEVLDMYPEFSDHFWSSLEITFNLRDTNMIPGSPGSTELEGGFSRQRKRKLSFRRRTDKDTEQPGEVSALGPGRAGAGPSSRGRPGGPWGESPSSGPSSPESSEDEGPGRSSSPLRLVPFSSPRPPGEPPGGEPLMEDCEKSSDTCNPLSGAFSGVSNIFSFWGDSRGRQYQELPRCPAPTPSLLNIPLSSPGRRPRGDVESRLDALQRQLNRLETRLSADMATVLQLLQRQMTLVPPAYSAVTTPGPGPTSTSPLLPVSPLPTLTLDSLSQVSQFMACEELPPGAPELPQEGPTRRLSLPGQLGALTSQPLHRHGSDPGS

As to `C[C@@H]1Cc2c([nH]c3ccc(F)cc23)[C@@H](c2c(F)cnc(OCCN(C)CCCF)c2F)N1CC(F)(F)CO` [Example 67, 3-((1R,3R)-1-(3,5-difluoro-2-(2-((3-fluoropropyl)(methyl)amino)ethoxy)pyridin-4-yl)-6-fluoro-3-methyl-1,3,4,9-tetrahydro-2H-pyrido[3,4-b]indol-2-yl)-2,2-difluoropropan-1-ol], the solubility (commonly the dissolved amount per volume that the medium holds) at 24 h in data set [1] (setting [6]) was determined as 80.6 µM (≈ 43.9 µg/mL). The results for the half-inhibitory concentration (IC50) (against hERG potassium channel; in data set [2]; in data set [5]) were 5700 nM, 0.7 nM and 0.099 nM, respectively. For the same molecule, in data set [3], the logD (in general, the decadic logarithm of the distribution of all forms, ionised or not, between an organic phase and buffer at a given pH) stood at 4. For the same molecule, in data set [4], the “Human plasma protein binding (% free)” value was found to be 1.6 % free.
As to `C[C@@H]1Cc2c([nH]c3ccccc23)[C@@H](c2c(Cl)ccc(OCCNCCCF)c2Cl)N1C[C@H](C)C(=O)O` [Example 128, (S)-3-((1R,3R)-1-(2,6-dichloro-3-(2-((3-fluoropropyl)amino)ethoxy)phenyl)-3-methyl-1,3,4,9-tetrahydro-2H-pyrido[3,4-b]indol-2-yl)-2-methylpropanoic acid], in data set [1] (setting [6]), the solubility at 24 h is 973 µM (≈ 522 µg/mL). Moreover, the values for the IC50 (against hERG potassium channel; in data set [2]; in data set [5]) were greater than 40000 nM, 3.4 nM and 1.1 nM, respectively. The logD in data set [3] amounted to 1. Moreover, the “Human plasma protein binding (% free)” value in data set [4] was found to be 15 % free.
Molecule `Cc1c(OCCN(C)CCCF)ccc(F)c1[C@@H]1c2[nH]c3ccccc3c2C[C@@H](C(F)(F)F)N1C[C@H](C)C(=O)O` [Example 149, (S)-3-((1R,3S)-1-(6-fluoro-3-(2-((3-fluoropropyl)(methyl)amino)ethoxy)-2-methylphenyl)-3-(trifluoromethyl)-1,3,4,9-tetrahydro-2H-pyrido[3,4-b]indol-2-yl)-2-methylpropanoic acid] gave a solubility at 24 h in data set [1] (setting [6]) of 523 µM (≈ 297 µg/mL). In addition, the IC50 – broadly, the concentration needed to halve the response being measured – against hERG potassium channel was greater than 40000 nM; in data set [2], 1.5 nM; in data set [5] it was 0.85 nM. In data set [3], this molecule returned a logD of 2.2. The “Human plasma protein binding (% free)” value in data set [4] was 5.3 % free. Moreover, in data set [5], the “% downregulation (in brackets)” value came to 86%.
Molecule `C[C@@H]1Cc2c([nH]c3ccccc23)[C@@H](c2c(F)ccc(OCCNCCCF)c2F)N1CC1(S(C)(=O)=O)CC1` [Example 77, N-(2-(2,4-difluoro-3-((1R,3R)-3-methyl-2-((1-(methylsulfonyl)cyclopropyl)methyl)-2,3,4,9-tetrahydro-1H-pyrido[3,4-b]indol-1-yl)phenoxy)ethyl)-3-fluoropropan-1-amine] returned a solubility at 24 h in data set [1] (setting [6]) of 410 µM (≈ 225 µg/mL). The results for the IC50 (against hERG potassium channel; in data set [2]; in data set [5]) were 5400 nM, 7.3 nM and 6.2 nM, respectively. The same molecule displayed a logD in data set [3] of 2.4. Moreover, in data set [4], the “Human plasma protein binding (% free)” value is listed as 5.5 % free.
In data set [1] (setting [6]), `Cc1c([C@@H]2c3[nH]c4ccccc4c3C[C@@H](C)N2CC(F)(F)CO)ccnc1OCCNCCCF` [Example 103, 2,2-difluoro-3-((1R,3R)-1-(2-(2-((3-fluoropropyl)amino)ethoxy)-3-methylpyridin-4-yl)-3-methyl-1,3,4,9-tetrahydro-2H-pyrido[3,4-b]indol-2-yl)propan-1-ol] displayed a solubility at 24 h of 660 µM (≈ 324 µg/mL). Also, the half-maximal inhibitory concentration (IC50) stood at 4300 nM at hERG potassium channel, 0.56 nM in data set [2] and 0.084 nM in data set [5]. This molecule also displayed a logD in data set [3] of 2.9. The “Human plasma protein binding (% free)” value in data set [4] turned out to be 2 % free.
In data set [1] (25° C.), `Cc1c(OCCN(C)CCCF)ncc(F)c1[C@@H]1c2[nH]c3ccccc3c2C[C@@H](C)N1C(C)CC(=O)O` (single isomer, unassigned) [Example 159] showed a solubility at 24 h greater than 1000 µM. Also, the values for the IC50 (at hERG potassium channel; in data set [2]; in data set [5]) were greater than 40000 nM, 0.9 nM and 0.18 nM, respectively. For the same molecule, in data set [3] (pH 7.4), the “LogD pH 7.4” value was 1.7. Moreover, the “Human plasma protein binding (% free)” value in data set [4] was 13 % free.
For the molecule `COc1ccc(OCCNCCCF)c(F)c1[C@@H]1c2[nH]c3ccccc3c2C[C@@H](C)N1CC1(F)CC1` [Example 83, 3-fluoro-N-(2-(2-fluoro-3-((1R,3R)-2-((1-fluorocyclopropyl)methyl)-3-methyl-2,3,4,9-tetrahydro-1H-pyrido[3,4-b]indol-1-yl)-4-methoxyphenoxy)ethyl)propan-1-amine], the solubility at 24 h in data set [1] (setting [6]) is 595 µM (≈ 298 µg/mL). The IC50 was 4000 nM at hERG potassium channel, 1.7 nM in data set [2] and 0.28 nM in data set [5]. In data set [3], the pH-dependent lipophilicity (logD) came to 2.9. Also, the “Human plasma protein binding (% free)” value in data set [4] is reported as 2.5 % free. For the same molecule, the “% downregulation (in brackets)” value in data set [5] was 90%.
As for `Cc1c([C@@H]2c3[nH]c4ccccc4c3C[C@@H](C)N2C[C@@H](C)C(=O)O)ccnc1OCCN(C)CCCF` [Example 161, (R)-3-((1R,3R)-1-(2-(2-((3-fluoropropyl)(methyl)amino)ethoxy)-3-methylpyridin-4-yl)-3-methyl-1,3,4,9-tetrahydro-2H-pyrido[3,4-b]indol-2-yl)-2-methylpropanoic acid], the solubility at 24 h in data set [1] (setting [6]) was greater than 1000 µM. Moreover, the IC50 on hERG potassium channel was greater than 40000 nM; in data set [2] it was 1.7 nM; in data set [5], 1.1 nM. Moreover, the logD in data set [3] amounted to 1.3. The “Human plasma protein binding (% free)” value in data set [4] is recorded as 6.3 % free.
For `C[C@@H]1Cc2c([nH]c3ccccc23)[C@@H](c2cc(OCCNCCCF)ccc2CO)N1CC(F)(F)F` [Example 70, (4-(2-((3-fluoropropyl)amino)ethoxy)-2-((1R,3R)-3-methyl-2-(2,2,2-trifluoroethyl)-2,3,4,9-tetrahydro-1H-pyrido[3,4-b]indol-1-yl)phenyl)methanol], the solubility at 24 h in data set [1] (setting [6]) stood at 231 µM (≈ 114 µg/mL). Also, the IC50 at hERG potassium channel worked out at 6300 nM; in data set [2] it was 1300 nM; in data set [5], 180 nM. Further, the logD in data set [3] amounted to 2.2. Besides, the “Human plasma protein binding (% free)” value in data set [4] turned out to be 23 % free.
In data set [1] (setting [6]), `COc1ccc(O[C@@H](C)CNCCCF)cc1[C@@H]1c2[nH]c3ccccc3c2C[C@@H](C)N1CC(F)(F)CO` [Example 48, 2,2-difluoro-3-((1R,3R)-1-(5-(((S)-1-((3-fluoropropyl)amino)propan-2-yl)oxy)-2-methoxyphenyl)-3-methyl-1,3,4,9-tetrahydro-2H-pyrido[3,4-b]indol-2-yl)propan-1-ol] showed a solubility at 24 h of 307 µM (≈ 160 µg/mL). Besides, the IC50 against hERG potassium channel came out at 2700 nM; in data set [2], 4.4 nM; in data set [5], 13 nM. In data set [3], this molecule had a logD of 2.8.
For `C[C@@H]1Cc2c([nH]c3ccccc23)[C@@H](c2nccc(OCCNCCCF)c2F)N1CC1(F)CC1` [Example 99, 3-fluoro-N-(2-((3-fluoro-2-((1S,3R)-2-((1-fluorocyclopropyl)methyl)-3-methyl-2,3,4,9-tetrahydro-1H-pyrido[3,4-b]indol-1-yl)pyridin-4-yl)oxy)ethyl)propan-1-amine] the same measures were 285 µM (≈ 135 µg/mL), 20000 nM, 3.4 nM, 3.8 nM and 2.1.
In data set [1] (setting [6]), `C[C@@H]1Cc2c([nH]c3ccccc23)[C@@H](c2nccc(OCCNCCCF)c2Cl)N1CC(F)(F)F` [Example 93, N-(2-((3-chloro-2-((1S,3R)-3-methyl-2-(2,2,2-trifluoroethyl)-2,3,4,9-tetrahydro-1H-pyrido[3,4-b]indol-1-yl)pyridin-4-yl)oxy)ethyl)-3-fluoropropan-1-amine] returned a solubility at 24 h of 0.5 µM (≈ 0.249 µg/mL). The molecule further returned an IC50 against hERG potassium channel of 6600 nM. Moreover, in data set [3], the logD is 4.3. Moreover, the “Human plasma protein binding (% free)” value in data set [4] is reported as 0.34 % free.
